Measured values as given in patent US20250288557A1, “FORMULATION AND METHOD FOR TREATMENT OF INFECTIONS” (priority 2022, published 2025).
Read-outs that look alike come from different tables or passages of the source.

System: Piglets
Details: for Mortality (%): (number of dead pigs/number of pigs enrolled)x100; for Clinical observations (%): percentage of pigs expressing clinical signs suggestive of product(s) side-effects: po
Procedure: Safety Study: Studies for safety were conducted. The trials assessed the active ingredients individually and according to various combinations.
Example Safety Study: The following provides the procedure(s) and data collected from the exemplary safety study.
Six different sets of pigs were tested with six different formulations: • 1. […] Statin or Atorvastatin (1.6 mg/dose) • 3. Indomethacin (3.64 mg/dose) • 4. Doxycycline (6 mg/dose) • 5. Cimetidine (18 mg/dose) • 6. Positive control (compounded formulation of Atorvastatin, Indomethacin, […], Doxycycline, and Cimetidine)
Methods: A sow farm negative for Porcine Reproductive and Respiratory Syndrome virus (PRRSv) and Mycoplasma hyopneumoniae and experiencing little to no piglet enteric health challenges was enrolled for the study. Piglets (12-14 days of age) orally received one of the six formulations identified above. When receiving a formulation, 1 mL of assigned treatment was obtained and provided to the Piglets.
At d0 and d1, pen-level fecal consistency was studied. At d1, piglet mortality was recorded.
Fecal scores: Average fecal score (pen-level). Fecal scours 0, 1, 2, and 3 corresponded to normal, pasty, semi-liquid, and liquid feces, respectively, with scores of ≥2 corresponding to diarrhea.
Mortality: %=(number of dead pigs/number of pigs enrolled)×100.

CC(C)c1c(C(=O)Nc2ccccc2)c(-c2ccccc2)c(-c2ccc(F)cc2)n1CC[C@@H](O)C[C@@H](O)CC(=O)O [Atorvastatin]
Mortality (%) (d 0): 0.0% | Mortality (%) (d 1): 0.0% | Fecal score of a single litter (pig, in vivo): 1 | Fecal scores: average fecal score (pen-level) (pig, in vivo): 0.5 | Palatability (%): percentage of pigs expressing clinical signs suggestive of poor palatability (pig, in vivo): 0.0% | Fecal scores: average fecal score (pen-level) (pig, in vivo, 1 day): 0.0 | Clinical observations (%): percentage of pigs expressing clinical signs suggestive of product(s) side-effects (pig, in vivo, 0 day): 0.0% | Clinical observations (%): percentage of pigs expressing clinical signs suggestive of product(s) side-effects (pig, in vivo, 24 h): 0.0%

CN/C(=N/CCSCc1nc[nH]c1C)NC#N [Cimetidine]
Mortality (%) (d 0): 0.0% | Mortality (%) (d 1): 0.0% | Fecal scores: average fecal score (pen-level) (pig, in vivo): 0.0 | Palatability (%): percentage of pigs expressing clinical signs suggestive of poor palatability (pig, in vivo): 0.0% | Fecal scores: average fecal score (pen-level) (pig, in vivo, 1 day): 0.0 | Clinical observations (%): percentage of pigs expressing clinical signs suggestive of product(s) side-effects (pig, in vivo, 0 day): 0.0% | Clinical observations (%): percentage of pigs expressing clinical signs suggestive of product(s) side-effects (pig, in vivo, 24 h): 0.0%

C[C@H]1c2cccc(O)c2C(=O)C2=C(O)[C@]3(O)C(=O)C(C(N)=O)=C(O)[C@@H](N(C)C)[C@@H]3[C@@H](O)[C@@H]21 [Doxycycline]
Mortality (%) (d 0): 0.0% | Mortality (%) (d 1): 0.0% | Fecal scores: average fecal score (pen-level) (pig, in vivo): 0.0 | Palatability (%): percentage of pigs expressing clinical signs suggestive of poor palatability (pig, in vivo): 0.0% | Fecal scores: average fecal score (pen-level) (pig, in vivo, 1 day): 0.0 | Clinical observations (%): percentage of pigs expressing clinical signs suggestive of product(s) side-effects (pig, in vivo, 0 day): 0.0% | Clinical observations (%): percentage of pigs expressing clinical signs suggestive of product(s) side-effects (pig, in vivo, 24 h): 0.0%

COc1ccc2c(c1)c(CC(=O)O)c(C)n2C(=O)c1ccc(Cl)cc1 [Indomethacin]
Mortality (%) (d 0): 0.0% | Mortality (%) (d 1): 0.0% | Fecal scores: average fecal score (pen-level) (pig, in vivo): 0.0 | Palatability (%): percentage of pigs expressing clinical signs suggestive of poor palatability (pig, in vivo): 0.0% | Fecal scores: average fecal score (pen-level) (pig, in vivo, 1 day): 0.0 | Clinical observations (%): percentage of pigs expressing clinical signs suggestive of product(s) side-effects (pig, in vivo, 0 day): 0.0% | Clinical observations (%): percentage of pigs expressing clinical signs suggestive of product(s) side-effects (pig, in vivo, 24 h): 0.0%
